Results from patent US20030203373A1 (priority 2002, published 2003).
Values joined by “and” are separate entries in the source; they are usually repeats but may differ in a detail not shown here. Equal entries are not always repeated. “Also recorded” adds a separate entry of the source.

Tested on: normotensive Wister rats
Assay: Bradykinin-potentiating effect on blood pressure in anaesthetized normotensive rats
Assay type: in vivo, rat
Description: In the in vivo experiments with normotensive rats the animals were previously anaesthetized and after blood pressure stabilization treated with a constant amount of bradykinin. Subsequently, either Captopril or human BPP were administered, again followed by a constant amount of bradykinin. Afterwards the maximum blood pressure drop was determined and, on the basis of bradykinin as a factor 1, the potentiating factor was determined. In the same way, the systolic and diastolic blood pressure, the percentage middle pressure decrease and the time required to come back to the baseline values were measured (see tables 4a to 4j). A detailed experimental description is given below.
2. Measurement of Blood Pressure in Normotensive and Hypertensive Rats
The trials were conducted on female anaesthetized normotensive Wister rats with weight ranging from 210 to 240 g.
The peptide pANP48-57 used for the in vivo assays was synthesized by Biosynthan (Berlin) with a HPLC-determined purity of 98%.
Anaesthetizing was performed by i.p.-administration of 1 ml/kg Ketavit (100 mg/ml)+Rampun (2%).
In order to conduct the blood pressure measurement, a polyethylene catheter was introduced into the Aorta femuralis and connected with a pressure transducer. A Statham-P23A pressure-transducer was linked to a Gould Polygraph and used to determine the arterial blood pressure. A Hg-manometer was used to calibrate the system.
All substances were dissolved and diluted in a physiological sodium chloride solution and introduced into the Vena jugularis via a catheter.
After stabilization of blood pressure (after about 10 minutes) […] body weight of a 2,5 μM bradykinin-solution (Sigma) was administered.
The middle pressure was determined from the measured diastolic (pd) and systolic (ps) blood pressure by using the following formula: pm=(ps−Pd)×0,42+pd.

[1] = S605 1 × 10^−3 M + Bradykinin 2.5 × 10^−6 M
[2] = S605 1 × 10^−3 M + Bradykinin 2.5 × 10^−6 M, individual female rat
[3] = S605 1.5 × 10^−3 M + Bradykinin 2.5 × 10^−6 M
[4] = S605 1.5 × 10^−3 M + Bradykinin 2.5 × 10^−6 M, Rat (female) 216 g, Table 4j
[5] = S605 1.5 × 10^−3 M + Bradykinin 2.5 × 10^−6 M, individual female rat
[6] = S605 1.5 × 10^−4 M + Bradykinin 2.5 × 10^−6 M
[7] = S605 1.5 × 10^−4 M + Bradykinin 2.5 × 10^−6 M, individual female rat
[8] = S605 5 × 10^−3 M + Bradykinin 2.5 × 10^−6 M
[9] = S605 5 × 10^−3 M + Bradykinin 2.5 × 10^−6 M, Rat (female) 211 g, Table 4i
[10] = S605 5 × 10^−3 M + Bradykinin 2.5 × 10^−6 M, individual female rat

CC(C)C[C@H](NC(=O)[C@H](C)N)C(=O)N[C@@H](CO)C(=O)N1CCC[C@H]1C(=O)N[C@@H](CC(C)C)C(=O)N1CCC[C@H]1C(=O)N[C@@H](CCC(=O)O)C(=O)N[C@H](C(=O)N1CCC[C@H]1C(=O)N1CCC[C@H]1C(=O)O)C(C)C [Peptide S545]
maximal drop of blood pressure [1]: 48.5%
potentiating factor (Bradykinin = 1) [1]: 1.49
Blood pressure minimal, PM (middle pressure) = (Ps − Pd) × 0.42 + Pd [2]: 39 mg Hg
Blood pressure minimal, diastolic [2]: 28 mg Hg
Blood pressure minimal, systolic [2]: 55 mg Hg
time to reach the baseline value [2]: time to reach the baseline value (t = 31 s)
ΔP (middle pressure drop) [2]: 37 mg Hg
ΔP (middle pressure drop), percentage [2]: 48.5%
maximal drop of blood pressure [3]: 50.5% ± 5.2
potentiating factor (Bradykinin = 1) [3]: 1.61
Blood pressure minimal, PM (middle pressure) = (Ps − Pd) × 0.42 + Pd [4]: 39 mg Hg
Blood pressure minimal, diastolic [4]: 28 mg Hg
Blood pressure minimal, systolic [4]: 55 mg Hg
following short overreaction at maximum (systolic/diastolic) [4]: following short overreaction at maximum of 106/80
time to reach the baseline value [4]: time to reach the baseline value (t = 20 s)
ΔP (middle pressure drop) [4]: 43 mg Hg
ΔP (middle pressure drop), percentage [4]: 52.4%
Blood pressure minimal, PM (middle pressure) = (Ps − Pd) × 0.42 + Pd [5]: 40 mg Hg and 34 mg Hg
Blood pressure minimal, diastolic [5]: 34 mg Hg and 26 mg Hg
Blood pressure minimal, systolic [5]: 49 mg Hg and 45 mg Hg
time to reach the baseline value [5]: time to reach the baseline value (t = 46 s); also recorded: time to reach the baseline value (t = 57 s)
ΔP (middle pressure drop) [5]: 32 mg Hg and 41 mg Hg
ΔP (middle pressure drop), percentage [5]: 44.6% and 54.4%
maximal drop of blood pressure [6]: 38.9% ± 8.3
potentiating factor (Bradykinin = 1) [6]: 1.24
Blood pressure minimal, PM (middle pressure) = (Ps − Pd) × 0.42 + Pd [7]: 48 mg Hg and 34 mg Hg and 33 mg Hg
Blood pressure minimal, diastolic [7]: 40 mg Hg and 26 mg Hg and 28 mg Hg
Blood pressure minimal, systolic [7]: 60 mg Hg and 46 mg Hg and 40 mg Hg
time to reach the baseline value [7]: time to reach the baseline value (t = 26 s); also recorded: time to reach the baseline value (t = 36 s); also recorded: time to reach the baseline value (t = 23 s)
ΔP (middle pressure drop) [7]: 22 mg Hg and 32 mg Hg and 20 mg Hg
ΔP (middle pressure drop), percentage [7]: 31.4% and 47.9% and 37.4%
maximal drop of blood pressure [8]: 63.8% ± 3.6
potentiating factor (Bradykinin = 1) [8]: 2.04
Blood pressure minimal, PM (middle pressure) = (Ps − Pd) × 0.42 + Pd [9]: 44 mg Hg
Blood pressure minimal, diastolic [9]: 35 mg Hg
Blood pressure minimal, systolic [9]: 56 mg Hg
following short overreaction at maximum (systolic/diastolic) [9]: following short overreaction at maximum of 141/108
time to reach the baseline value [9]: time to reach the baseline value (t = 44 s)
ΔP (middle pressure drop) [9]: 70 mg Hg
ΔP (middle pressure drop), percentage [9]: 61.4%
following short overreaction at maximum of (systolic/diastolic blood pressure) (S605 5 × 10^−3 M + Bradykinin 2.5 × 10^−6 M, after return to baseline): following short overreaction at maximum of 112/84; also recorded: following short overreaction at maximum of 154/112
Blood pressure minimal, PM (middle pressure) = (Ps − Pd) × 0.42 + Pd [10]: 24 mg Hg and 40 mg Hg
Blood pressure minimal, diastolic [10]: 16 mg Hg and 32 mg Hg
Blood pressure minimal, systolic [10]: 36 mg Hg and 52 mg Hg
time to reach the baseline value [10]: time to reach the baseline value (t = 36 s); also recorded: time to reach the baseline value (t = 87 s)
ΔP (middle pressure drop) [10]: 52 mg Hg and 66 mg Hg
ΔP (middle pressure drop), percentage [10]: 68% and 62.1%
bradykinin-potentiating effect (short-time decrease of blood pressure induced by bradykinin) (normotensive rats, result in words): concentration dependent bradykinin-potentiating
fold higher molecular concentration in comparison to Captopril required for the bradykinin-potentiating effect in vivo (relative to Captopril): 10 fold
